pIC50: −log10 of the molar value.

For the assay, the target named is T1, human plasma protein factor Xa (Homo sapiens, UniProt P00742).
T1 construct: The human plasma protein factor Xa was purchased from Haematologic Technologies; purchased Haematologic Technologies (Essex Junction, Vt.); host or cells: human plasma
T1 sequence (P00742 235-488 limits assumed): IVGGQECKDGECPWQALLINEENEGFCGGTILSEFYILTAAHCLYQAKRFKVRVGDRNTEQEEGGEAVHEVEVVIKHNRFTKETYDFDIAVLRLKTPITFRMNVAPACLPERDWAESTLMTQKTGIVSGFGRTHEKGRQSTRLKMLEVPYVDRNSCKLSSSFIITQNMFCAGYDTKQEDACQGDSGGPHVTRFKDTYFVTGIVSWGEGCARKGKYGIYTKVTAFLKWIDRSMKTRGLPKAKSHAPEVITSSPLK
T1 sequence (P00742 41-179 partner limits assumed): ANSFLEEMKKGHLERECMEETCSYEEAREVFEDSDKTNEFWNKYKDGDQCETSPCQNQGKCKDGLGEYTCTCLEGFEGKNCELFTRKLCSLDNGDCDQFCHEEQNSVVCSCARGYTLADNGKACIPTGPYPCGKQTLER
The assay is described as follows: Factor Xa IC50 determination, cleavage of paranitroanilide substrate S-2765. The assay is classed as biochemical. The settings on record: factor Xa 1 nM, S2765 100 μM, Tris buffered saline pH 7.4, 5% DMSO. The source says: This example illustrates methods for evaluating the compounds of the invention, along with results obtained for such assays. The in vitro and in vivo human Factor Xa activities of the inventive compounds can be determined by various procedures known in the art, such as a test for their ability to inhibit the activity of human plasma Factor Xa. […] The IC50 value is the concentration (in nM) of the compound required to provide 50% inhibition of human Factor Xa proteolytic activity.
An in vitro assay for detecting and measuring inhibition activity against Factor Xa is as follows:
The substrate S-2765 (Z-D-Arg-Gly-Arg-pNA•HCl) was obtained from Diapharma (West Chester, Ohio).
The human plasma protein factor Xa was purchased from Haematologic Technologies (Essex Junction, Vt.).
All assays, which are performed in 96-well microtiter plates, measure proteolytic activity of the enzyme (factor Xa) by following cleavage of a paranitroanilide peptide substrate. The assay buffer used for proteolytic assays was Tris buffered saline (20 mM Tris, 150 mM NaCl, 5 mM CaCl2, 0.1% Bovine serum albumin (BSA), 5% Dimethly Sulfoxide (DMSO) pH 7.4). In a 96-well microtiter plate, inhibitor was serially diluted to give a range of final concentrations from 0.01 nM to 10 μM. Duplicate sets of wells were assayed and control wells without inhibitor were included. Enzyme was added to each well, (factor Xa concentration=1 nM), the plate was shaken for 5 seconds and then incubated for 5 minutes at room temperature. S2765 was added (100 μM final) and the plate was shaken for 5 seconds (final volume in each well was 200 μl). The degree of substrate hydrolysis was measured at 405 nm on a Thermomax plate reader (Molecular Devices, Sunnyvale, Calif.) for 2 minutes. The initial velocities of substrate cleavage (mOD/min), for each range of inhibitor concentrations, were fitted to a four parameter equation using Softmax data analysis software. The parameter C, derived from the resulting curve-fit, corresponded to the concentration for half maximal inhibition (IC50).
The pIC50 is the negative decadic logarithm of the IC50, by convention in mol/L. Lower therefore signals a large IC50. `COc1cccn(-c2ccc(-n3cnc(CNC(=O)c4ccc(Cl)s4)c3)cc2)c1=O` [Compound 41, 5-chloro-N-((1-(4-(3-methoxy-2-oxopyridin-1(2H)-yl)phenyl)-1H-imidazol-4-yl)methyl)thiophene-2-carboxamide]: the pIC50 was not below 7.00. The molecule `O=C(NCc1cn(-c2ccc(-n3cccc(O)c3=O)cc2)cn1)c1ccc(Cl)s1` [Compound 42, 5-chloro-N-((1-(4-(3-hydroxy-2-oxopyridin-1(2H)-yl)phenyl)-1H-imidazol-4-yl)methyl)thiophene-2-carboxamide] showed a pIC50 not below 7.00. Regarding `O=C(NCc1cn(-c2ccc(-n3cccc(F)c3=O)cc2)cn1)c1ccc(Cl)s1` [Compound 43, 5-chloro-N-((1-(4-(3-fluoro-2-oxopyridin-1(2H)-yl)phenyl)-1H-imidazol-4-yl)methyl)thiophene-2-carboxamide], the pIC50 is not below 7.00.

Take `Cc1cccn(-c2ccc(-n3cnc(CNC(=O)c4ccc(Cl)s4)c3)cc2)c1=O` [Compound 44, 5-chloro-N-((1-(4-(3-methyl-2-oxopyridin-1(2H)-yl)phenyl)-1H-imidazol-4-yl)methyl)thiophene-2-carboxamide]: the pIC50 is not below 7.00. Then `Cc1ccc(=O)n(-c2ccc(-n3cnc(CNC(=O)c4ccc(Cl)s4)c3)cc2)c1` [Compound 45, 5-chloro-N-((1-(4-(5-methyl-2-oxopyridin-1(2H)-yl)phenyl)-1H-imidazol-4-yl)methyl)thiophene-2-carboxamide], with not below 7.00.

`O=C(NCc1cn(-c2ccc(-n3ccc(O)cc3=O)cc2)cn1)c1ccc(Cl)s1` [Compound 46, 5-chloro-N-((1-(4-(4-hydroxy-2-oxopyridin-1(2H)-yl)phenyl)-1H-imidazol-4-yl)methyl)thiophene-2-carboxamide] showed a pIC50 of 6.30 to 7.00. Then `O=C(NCc1cn(-c2ccc(-n3ccc(=O)[nH]c3=O)cc2)cn1)c1ccc(Cl)s1` [Compound 47, 5-chloro-N-((1-(4-(2,4-dioxo-3,4-dihydropyrimidin-1(2H)-yl)phenyl)-1H-imidazol-4-yl)methyl)thiophene-2-carboxamide], with not below 7.00. Then `Nc1ccn(-c2ccc(-n3cnc(CNC(=O)c4ccc(Cl)s4)c3)cc2)c(=O)n1` [Compound 48, N-((1-(4-(4-amino-2-oxopyrimidin-1(2H)-yl)phenyl)-1H-imidazol-4-yl)methyl)-5-chlorothiophene-2-carboxamide], with not below 7.00; and `Cn1c(=O)ccn(-c2ccc(-n3cnc(CNC(=O)c4ccc(Cl)s4)c3)cc2)c1=O` [Compound 49, 5-chloro-N-((1-(4-(3-methyl-2,4-dioxo-3,4-dihydropyrimidin-1(2H)-yl)phenyl)-1H-imidazol-4-yl)methyl)thiophene-2-carboxamide], with not below 7.00. With `Nc1nc(=O)n(-c2ccc(-n3cnc(CNC(=O)c4ccc(Cl)s4)c3)cc2)cc1F` [Compound 50, N-((1-(4-(4-amino-5-fluoro-2-oxopyrimidin-1(2H)-yl)phenyl)-1H-imidazol-4-yl)methyl)-5-chlorothiophene-2-carboxamide] the figure was not below 7.00. `CC(=O)Nc1ccn(-c2ccc(-n3cnc(CNC(=O)c4ccc(Cl)s4)c3)cc2)c(=O)n1` [Compound 51, N-((1-(4-(4-acetamido-2-oxopyrimidin-1(2H)-yl)phenyl)-1H-imidazol-4-yl)methyl)-5-chlorothiophene-2-carboxamide] gave a pIC50 not below 7.00. Then `O=C(NCc1cn(-c2ccc(N3CCCCC3=O)cc2)cn1)c1ccc(Cl)s1` [Compound 52, 5-chloro-N-((1-(4-(2-oxopiperidin-1-yl)phenyl)-1H-imidazol-4-yl)methyl)thiophene-2-carboxamide], with not below 7.00; and `O=C(NCc1cn(-c2ccc(-n3ccccc3=O)cc2OCCN2CCCCC2)cn1)c1ccc(Cl)s1` [Compound 53, 5-chloro-N-((1-(4-(2-oxopyridin-1(2H)-yl)-2-(2-(piperidin-1-yl)ethoxy)phenyl)-1H-imidazol-4-yl)methyl)thiophene-2-carboxamide], with not below 7.00. Then `O=C(NCc1cn(-c2ccc(-n3ccccc3=O)cc2)cn1)c1ccc2[nH]ccc2c1` [Compound 54, N-((1-(4-(2-oxopyridin-1(2H)-yl)phenyl)-1H-imidazol-4-yl)methyl)-1H-indole-5-carboxamide], with not above 6.30; and `CSc1nc(CNC(=O)c2ccc(Cl)s2)cn1-c1ccc(-n2ccccc2=O)cc1` [Compound 55, 5-chloro-N-((2-(methylthio)-1-(4-(2-oxopyridin-1(2H)-yl)phenyl)-1H-imidazol-4-yl)methyl)thiophene-2-carboxamide], with not below 7.00.

Molecule `CS(=O)(=O)c1nc(CNC(=O)c2ccc(Cl)s2)cn1-c1ccc(-n2ccccc2=O)cc1` [Compound 56, 5-chloro-N-((2-(methylsulfonyl)-1-(4-(2-oxopyridin-1(2H)-yl)phenyl)-1H-imidazol-4-yl)methyl)thiophene-2-carboxamide] had a negative logarithm of the IC50 (pIC50) not below 7.00. Then `C[S+]([O-])c1nc(CNC(=O)c2ccc(Cl)s2)cn1-c1ccc(-n2ccccc2=O)cc1` (stereo not drawn) [Compound 57, 5-chloro-N-((2-(methylsulfinyl)-1-(4-(2-oxopyridin-1(2H)-yl)phenyl)-1H-imidazol-4-yl)methyl)thiophene-2-carboxamide], with not below 7.00. With `O=C(NCc1cn(-c2ccc(-n3ccnc(O)c3=O)cc2)cn1)c1ccc(Cl)s1` [Compound 58, 5-chloro-N-((1-(4-(3-hydroxy-2-oxopyrazin-1(2H)-yl)phenyl)-1H-imidazol-4-yl)methyl)thiophene-2-carboxamide] the figure was not below 7.00; with `O=C(NCc1cn(-c2ccc(-n3cccc(OCCO)c3=O)cc2)cn1)c1ccc(Cl)s1` [Compound 59, 5-chloro-N-((1-(4-(3-(2-hydroxyethoxy)-2-oxopyridin-1(2H)-yl)phenyl)-1H-imidazol-4-yl)methyl)thiophene-2-carboxamide], not below 7.00. Then `CCN1CCN(c2ccc(-n3cnc(CNC(=O)c4ccc(Cl)s4)c3)cc2)C(=O)C1=O` [Compound 60, 5-chloro-N-((1-(4-(4-ethyl-2,3-dioxopiperazin-1-yl)phenyl)-1H-imidazol-4-yl)methyl)thiophene-2-carboxamide], with not above 6.30; and `NC(=O)/N=c1\ccccn1-c1ccc(-n2cnc(CNC(=O)c3ccc(Cl)s3)c2)cc1` [Compound 61, N-((1-(4-(2-(carbamoylimino)pyridin-1(2H)-yl)phenyl)-1H-imidazol-4-yl)methyl)-5-chlorothiophene-2-carboxamide], with not below 7.00; and `Cc1nc(CNC(=O)c2ccc(Cl)s2)cn1-c1ccc(-n2ccccc2=O)cc1` [Compound 62, 5-Chloro-N-((2-methyl-1-(4-(2-oxopyridin-1(2H)-yl)phenyl)-1H-imidazol-4-yl)methyl)thiophene-2-carboxamide], with not below 7.00. As for `Cc1c(CNC(=O)c2ccc(Cl)s2)ncn1-c1ccc(-n2ccccc2=O)cc1` [Compound 63, 5-Chloro-N-((5-methyl-1-(4-(2-oxopyridin-1(2H)-yl)phenyl)-1H-imidazol-4-yl)methyl)thiophene-2-carboxamide], the pIC50 was not above 6.30. Then `C[S+]([O-])c1nc(CNC(=O)c2ccc(Cl)s2)cn1-c1ccc(-n2cc(F)ccc2=O)cc1` (stereo not drawn) [Compound 64, 5-chloro-N-((1-(4-(5-fluoro-2-oxopyridin-1(2H)-yl)phenyl)-2-(methylsulfinyl)-1H-imidazol-4-yl)methyl)thiophene-2-carboxamide], with not below 7.00.

(Values after patent US8063077B2, “Factor Xa inhibitors” (Millennium Pharmaceuticals, Inc., priority 2006, dated 2011).)
